Source: the NIST ThermoML archive (doi:10.1021/je900437b)

Assay: xn = mol fraction of the nth substance listed
Settings: 101 kPa, Liquid; for mass density: Vibrating tube method; for speed of sound: Sing-around technique in a fixed-path interferometer

CC(C)(N)CO [2-amino-2-methylpropan-1-ol] + NCCO
Settings	mass density, 308.15 K [kg/m3]	mass density, 313.15 K [kg/m3]	mass density, 318.15 K [kg/m3]	mass density, 323.15 K [kg/m3]	speed of sound, 313.15 K [m/s]	speed of sound, 318.15 K [m/s]	speed of sound, 323.15 K [m/s]
x2 = 0	924.174	919.945	915.702	911.431	1423.8	1405.3	1386.9
x2 = 0.141	932.236	927.969	923.687	919.381	1450.4	1432.2	1414.2
x2 = 0.2691	940.355	936.091	931.816	927.518	1476.5	1458.6	1440.8
x2 = 0.3862	948.482	944.248	940.009	935.735	1501.9	1484.3	1466.7
x2 = 0.4939	956.545	952.319	948.077	943.814	1527	1509.7	1492.3
x2 = 0.5933	964.465	960.252	956.017	951.753	1551.9	1534.8	1517.7
x2 = 0.6869	972.442	968.25	964.037	959.804	1576.9	1559.9	1542.9
x2 = 0.7724	980.259	976.093	971.917	967.721	1601	1584.1	1567.2
x2 = 0.8532	988.206	984.066	979.896	975.738	1624.7	1608	1591.3
x2 = 0.9268	995.885	991.791	987.66	983.527	1647.3	1630.8	1614.4
